Experimental data taken from ChEMBL document CHEMBL6153034, “Synthesis of dolutegravir derivatives modified by 1,2,3-triazole structure and their anti-inflammatory activity in LPS-induced BV2 cells” (Bioorg Med Chem Lett, 2025).

What was measured:
[1] = Cytotoxicity against mouse BV-2 cells assessed as cell viability at 10 uM by MTT assay relative to control; type: toxicity, cell-based; conditions: read-out: Activity
BV-2 [2] = experiment: Antiinflammatory activity in LPS induced mouse BV-2 cells assessed as NO production at 1 uM by Griess reagent based assay relative to control
BV-2 [3] = experiment: Antiinflammatory activity in LPS induced mouse BV-2 cells assessed as NO production at 10 uM by Griess reagent based assay relative to control
BV-2 [4] = experiment: Antiinflammatory activity in LPS induced mouse BV-2 cells assessed as inhibition of NO production by Griess reagent based assay; type: functional, cell-based
[5] = Cytotoxicity against mouse BV-2 cells assessed as cell viability at 1 uM by MTT assay relative to control; type: toxicity, cell-based; conditions: read-out: Activity
BV-2 [6] = experiment: Antiinflammatory activity in LPS-induced mouse BV-2 cells assessed as reduction in NO release relative to control; type: functional; design: scale not given: the % may be the effect or the level left
[7] = system: Human immunodeficiency virus 1; experiment: Antiviral activity against HIV-1 infected in human C8166 cells assessed as inhibition of virus-induced cytopathic effect; type: functional, organism-based; conditions: Human immunodeficiency virus 1, C8166
RAW264.7 = experiment: Antiinflammatory activity in LPS-induced mouse RAW264.7 cells assessed as inhibition of NO production; type: functional, cell-based
[8] = system: Human immunodeficiency virus 1; experiment: Antiviral activity against HIV-1; type: functional, organism-based

Structure (SMILES) | viability at 10 µM [1] [%] | level, % of control at 1 µM (BV-2 [2]) [%] | level, % of control at 10 µM (BV-2 [3]) [%] | IC50 (BV-2 [4]) [µM] | viability at 1 µM [5] [%] | Activity (BV-2 [6]) [%] | EC50 [7] [µM] | IC50 (RAW264.7) [µM] | EC50 [8] [µM]
COc1c2n(cc(C(=O)Nc3cccc(-c4cn(-c5ccccc5I)nn4)c3)c1=O)C[C@@H]1OCC[C@@H](C)N1C2=O | 89.2 | 78.4 | 52.1 | 5.03 | 96.4 |  |  |  | 
CC(=O)Oc1ccc2c(=O)c(-c3ccc(-n4cc(-c5ccc6c(c5)C(=O)N5CCCC5C(=O)N6)nn4)cc3)coc2c1 (stereo not drawn) |  |  |  |  |  | 64.28 |  |  | 
COc1ccccc1-n1cc(-c2cccc(NC(=O)c3cn4c(c(OC)c3=O)C(=O)N3[C@H](C)CCO[C@H]3C4)c2)nn1 | 76.8 | 76 | 48.6 | 11 | 109 |  |  |  | 
COc1c2n(cc(C(=O)Nc3cccc(-c4cn(-c5c(C)cc(C)cc5C)nn4)c3)c1=O)C[C@@H]1OCC[C@@H](C)N1C2=O | 96.7 | 85.1 | 46 | 9.68 | 102 |  |  |  | 
C=CC(C)(C)c1cc2cc([C@@H](O)[C@@H](O)C(C)(C)O)c(O)cc2oc1=O |  |  |  |  |  |  | < 10 | < 10 | 
CCc1ccccc1-n1cc(-c2ccccc2NC(=O)c2cn3c(c(OC)c2=O)C(=O)N2[C@H](C)CCO[C@H]2C3)nn1 | 94.7 | 86.7 | 76.3 |  | 111 |  |  |  | 
COc1c2n(cc(C(=O)Nc3cccc(-c4cn(-c5cccc(C(F)(F)F)c5)nn4)c3)c1=O)C[C@H]1OC[C@H](C)N1C2=O | 43.6 | 104 | 78.4 |  | 90.7 |  |  |  | 
COc1c2n(cc(C(=O)Nc3cccc(-c4cn(-c5c(C)cc(C)cc5C)nn4)c3)c1=O)C[C@H]1OC[C@H](C)N1C2=O | 49.3 | 116 | 89.6 |  | 94.6 |  |  |  | 
COc1c2n(cc(C(=O)Nc3cccc(-c4cn(-c5cc(C(F)(F)F)cc(C(F)(F)F)c5)nn4)c3)c1=O)C[C@@H]1OCC[C@@H](C)N1C2=O | 71.3 | 81.6 | 71.1 |  | 108 |  |  |  | 
CCc1ccccc1-n1cc(-c2cccc(NC(=O)c3cn4c(c(OC)c3=O)C(=O)N3[C@H](C)CCO[C@H]3C4)c2)nn1 | 49.8 | 94.5 | 59.9 |  | 101 |  |  |  | 
COc1c2n(cc(C(=O)Nc3ccccc3-c3cn(-c4ccccc4F)nn3)c1=O)C[C@@H]1OCC[C@@H](C)N1C2=O | 98.5 | 86.8 | 78.7 |  | 100 |  |  |  | 
Cc1ccc([C@@](C)(O)CC[C@@H](O)C(C)(C)O)cc1 |  |  |  |  |  |  |  | < 10 | < 10
COc1c2n(cc(C(=O)Nc3ccc(-c4cn(-c5cc(C(F)(F)F)ccc5C(F)(F)F)nn4)cc3)c1=O)C[C@@H]1OCC[C@@H](C)N1C2=O | 109 | 83 | 69 |  | 108 |  |  |  | 
